Here are results for 33 compounds from US6737439B2, “Aromatase inhibitors from Broussonetia papyrifera” (The Board of Trustees of the University of Illinois, priority 2001, dated 2004).

One series has as its target T1, aromatase (Homo sapiens, UniProt P11511).
T1 construct: Reaction mixtures were prepared in glass tubes containing 4 μL of placental microsomes (5 mg/mL); from tissue; host or cells: human term placenta (microsomal fraction)
T1 sequence (P11511 1-503): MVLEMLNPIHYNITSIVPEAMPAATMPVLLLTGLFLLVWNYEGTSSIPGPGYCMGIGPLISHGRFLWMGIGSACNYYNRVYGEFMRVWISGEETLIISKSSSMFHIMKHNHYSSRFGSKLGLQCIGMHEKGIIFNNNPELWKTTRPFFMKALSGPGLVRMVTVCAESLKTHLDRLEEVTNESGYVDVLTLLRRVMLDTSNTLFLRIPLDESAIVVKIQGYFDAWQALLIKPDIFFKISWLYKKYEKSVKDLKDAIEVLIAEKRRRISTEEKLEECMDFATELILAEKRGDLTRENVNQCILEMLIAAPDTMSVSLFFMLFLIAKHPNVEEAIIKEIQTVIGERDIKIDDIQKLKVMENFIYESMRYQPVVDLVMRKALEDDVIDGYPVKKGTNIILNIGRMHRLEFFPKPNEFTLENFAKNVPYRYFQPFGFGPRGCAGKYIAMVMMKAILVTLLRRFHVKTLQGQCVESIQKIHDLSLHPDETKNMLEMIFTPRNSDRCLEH
Nature of the series: Assay for inhibition of aromatase activity (human placental microsomes, [1,2-3H]androstenedione). The series is classed as biochemical. The note with it: for IC50: human placental microsomes, read-out: IC50 (μM), aromatase inhibitory activity; for aromatase inhibition, result in words: in vitro aromatase assay; for pIC50: read-out: IC50, inactive in the aromatase inhibition assay at the dose levels used; for fold greater aromatase inhibition potency than aminoglutethimide: versus positive control aminoglutethimide. As for the experimental part:
Assay for Inhibition of Aromatase Activity. Microsomes were prepared from freshly delivered human term placentas using 0.05 M potassium phosphate buffer, pH 7.4, and stored frozen in plastic tubes at −70° C. […] After a 4 min incubation at 37° C., the reaction was terminated by adding 3 mL of chloroform. The tubes were centrifuged at 2,000×g for 10 min and then 300 μL of the aqueous phases were transferred to tubes containing 300 μL of charcoal/dextrin solution (5%). Following another 10 min centrifugation at 2,000×g, supernatant fractions (500 μL) were used for the determination of radioactivity. Inhibition of aromatase activity was calculated using the following equation: [formula]
Samples were tested in duplicate and the mean values were used to prepare dose-response curves. Results were typically expressed as IC50 values.

Series [1] relates to alveolar lesions in a mouse mammary organ culture model. Nature of the series: Mouse mammary organ culture model, formation of alveolar lesions. The series is classed as cell-based. The conditions noted are these: tested at 100 ng/ml.
In series [2] the test system is tumors in Sprague-Dawley rats. The note with it: 400 mg/kg diet; cited from earlier work.

pIC50: −log10 of the molar value. “And” between values parts separate entries of the source, which are not always exact repeats. Identical values can stand only once. “Also recorded” adds a separate entry of the source. Like-named read-outs stand apart in the source and are kept apart here.

For `COc1ccc(CCCc2ccc(O)cc2)c(O)c1` [Compound 18, Broussonin A], at aromatase, the half-maximal inhibitory concentration (IC50) stood at 30 µM and the “aromatase inhibition, result in words” value is reported as “did not show potent aromatase inhibition”.

Take `CC(C)=CCc1c(O)ccc(CCCc2ccc(O)cc2)c1O` [Compound 6, 1-(2,4-Dihydroxy-3-prenylphenyl)-3-(4-hydroxyphenyl)propane]: the melting point is 115 to 116 °C. Moreover, the “aromatase inhibition, result in words” value at aromatase is “inactive”.

Turning to `O=c1ccc2c(O)cc(O)cc2o1` [5,7-dihydrocoumarin, 5,7-Dihydroxycoumarin], on aromatase, the pIC50 is below 3.65.

For `CC(C)=CCc1cc(-c2oc3c(CC=C(C)C)c(O)cc(O)c3c(=O)c2O)ccc1O` [Compound 16, Broussoflavonol F], the IC50 on aromatase was 9.7 µM.

Regarding `COc1ccc(CCCc2ccc(OC)c(O)c2)c(O)c1` [broussonin E, Broussonin E], the “aromatase inhibition, result in words” value at aromatase is given as “did not show potent aromatase inhibition”.

In the case of `CC(C)=CCc1cc([C@H]2Oc3c(CC=C(C)C)c(O)cc(O)c3C(=O)[C@@H]2O)ccc1O` [(2R,3R)-lespedezaflavanone C, (2R,3R)-Lespedezaflavanone C], the “aromatase inhibition, result in words” value on aromatase is reported as “did not show potent aromatase inhibition”.

Take `CC(C)=CCc1cc2cc(-c3cc(O)cc(O)c3)oc2cc1O` [Compound 20, Moracin N]: at aromatase, the half-maximal inhibitory concentration (IC50) is 31.1 µM and the “aromatase inhibition, result in words” value is “did not show potent aromatase inhibition”.

With `CC(C)=CCC/C(C)=C/Cc1c(-c2ccc(O)cc2O)oc2cc(O)cc(O)c2c1=O` [Compound 1, 5,7,2′,4′-Tetrahydroxy-3-geranylflavone], the melting point lay in the range of 94 to 95 °C. Moreover, on aromatase, the concentration for half-maximal inhibition (IC50) is 24 µM and the “aromatase inhibition, result in words” value was “active”.

Regarding `CC1(C)C=Cc2c(O)cc(-c3cc4ccc(O)cc4o3)cc2O1` [moracin D, Moracin D], the “aromatase inhibition, result in words” value on aromatase is given as “did not show potent aromatase inhibition”.

`O=C1c2c(O)cc(O)cc2O[C@H](c2ccc(O)cc2)[C@H]1O` [(2R,3R)-katuranin, (2R,3R)-Katuranin]: at aromatase, the “aromatase inhibition, result in words” value is “did not show potent aromatase inhibition”.

As to (2S)-Euchrenone a7 [Compound 15], at aromatase, the IC50 was determined as 3.4 µM.

Consider `C/C(=C\Cc1c(O)ccc(C(=O)/C=C/c2ccc(O)cc2O)c1O)COC(=O)/C=C/c1ccc(O)cc1` [Compound 9, 3′-[γ-Hydroxymethyl-(E)-γ-methylallyl]-2,4,2′,4′-tetrahydroxychalcone 11′-O-coumarate], for which, at aromatase, the IC50 is 0.5 µM and 0.52 µM; the “aromatase inhibition, result in words” value is reported as “active”; the “fold greater aromatase inhibition potency than aminoglutethimide” value is “approximately ten”.

Consider `CC(C)=CCc1cc([C@@H]2CCc3ccc(O)cc3O2)ccc1O` [Compound 4, (2S)-7,4′-Dihydroxy-3′-prenylflavan], for which the “aromatase inhibition, result in words” value on aromatase is “did not show potent aromatase inhibition; also recorded: inactive”.

Compound `COc1cc(O)ccc1CCCc1ccc(O)c(CC=C(C)C)c1` [Compound 7, 1-(4-Hydroxy-2-methoxyphenyl)-3-(4-hydroxy-3-prenylphenyl)propane] gave a melting point of 85 to 86 °C. Moreover, at aromatase, the “aromatase inhibition, result in words” value is “inactive”.

On to `COc1ccc2c(c1CC=C(C)C)O[C@H](c1ccc(O)cc1O)CC2` [Compound 22, (2S)-2′,4′-Dihydroxy-7-methoxy-8-prenylflavan], for which the melting point was in the range of 95 to 96 °C. Besides, at aromatase, the “aromatase inhibition, result in words” value is “did not show potent aromatase inhibition” and the pIC50 is below 3.93.

For the compound `COc1cc(/C=C/C(=O)OC/C(C)=C/Cc2c(O)ccc(C(=O)/C=C/c3ccc(O)cc3O)c2O)ccc1O` [Compound 8, 3′-(γ-hydroxymethyl-(E)-γ-methylallyl)-2,4,2′,4′-tetrahydroxychalcone 11′-O-ferulate], at aromatase, the IC50 came out at 7.1 µM and the “aromatase inhibition, result in words” value is recorded as “active”.

As for `COc1cc(O)cc(-c2cc3ccc(O)cc3o2)c1CC=C(C)C` [moracin I, Moracin I], the “aromatase inhibition, result in words” value on aromatase was “did not show potent aromatase inhibition”.

For the compound `CC(C)(O)C1Cc2c(ccc3c2O[C@H](c2ccc(O)cc2O)CC3=O)O1` (stereo partly drawn) [Compound 11, 2S-2′,4′-Dihydroxy-2″-(1-hydroxy-1-methylethyl)-dihydrofuro[2,3-h]flavanone], at aromatase, the 50% inhibitory concentration (IC50) was ~0.1 µM and 0.11 µM; the “aromatase inhibition, result in words” value was “active”; the “fold greater aromatase inhibition potency than aminoglutethimide” value was “approximately 60 fold”. In series [1], this compound registered an inhibition at 0.1 µg/mL of 50%.

Consider `O=C1c2c(O)cc(O)cc2O[C@H](c2ccc(O)cc2O)[C@H]1O` [(2R,3R)-5,7,2′,4′-tetrahydroxyflavanonol, (2R,3R)-5,7,2′,4′-Tetrahydroxyflavanonol], for which the “aromatase inhibition, result in words” value on aromatase is reported as “did not show potent aromatase inhibition”.

Consider Aminoglutethimide, for which the MNU-induced tumor incidence result in series [2] is “effectively reduces”.

Take `CC(C)=CCc1c(O)cc2oc(-c3ccc(O)c(O)c3)c(O)c(=O)c2c1O` [gancaonin P, Gancaonin P]: the “aromatase inhibition, result in words” value on aromatase is on record as “not active”.

Take `CC(C)=CCC/C(C)=C/Cc1c(O)cc2oc(-c3ccc(O)c(O)c3)c(O)c(=O)c2c1O` [Compound 2, 5,7,3′,4′-Tetrahydroxy-6-geranylflavonol]: at aromatase, the “aromatase inhibition, result in words” value was “not active; also recorded: inactive”.

As to `CC(C)=CCc1cc2c(cc1O)O[C@H](c1ccc(O)cc1)CC2=O` [bavachin, Bavachin], on aromatase, the “aromatase inhibition, result in words” value is listed as “not active”.

For Broussonin F, the “aromatase inhibition, result in words” value at aromatase is “did not show potent aromatase inhibition”.

Regarding `Oc1ccc([C@@H]2CCc3ccc(O)cc3O2)cc1` [(2S)-7,4′-dihydroxyflavan, (2S)-7,4′-Dihydroxyflavan], on aromatase, the “aromatase inhibition, result in words” value is reported as “did not show potent aromatase inhibition”.

`Oc1cc(O)cc(-c2cc3ccc(O)cc3o2)c1` [moracin M, Moracin M]: on aromatase, the “aromatase inhibition, result in words” value was “did not show potent aromatase inhibition”.

`COc1cc(O)ccc1CCCc1ccc(O)cc1` [broussonin B, Broussonin B]: the “aromatase inhibition, result in words” value at aromatase was “did not show potent aromatase inhibition”.

With `CC(C)=CCc1c(O)cc(O)cc1-c1cc2ccc(O)cc2o1` [Compound 10, Demethylmoracin I], on aromatase, the IC50 turned out to be 31.1 µM and the “aromatase inhibition, result in words” value is “did not show potent aromatase inhibition; also recorded: active”.

As for `CC1=C[C@@H]2c3c(O)cc(-c4cc5ccc(O)cc5o4)cc3O[C@]3(c4ccc(O)cc4O)Oc4cc(O)ccc4[C@@H](C1)[C@H]23` [Compound 21, Albanol A], the half-inhibitory concentration (IC50) at aromatase is 7.5 µM.

As for `CC(C)=CCc1c(O)ccc(C(=O)/C=C/c2ccc(O)cc2O)c1O` [Compound 19, 2,4,2′,4′-Tetrahydroxy-3′-prenylchalcone], the 50% inhibitory concentration (IC50) on aromatase came out at 4.6 µM.

`Oc1ccc(CCCc2ccc(O)cc2O)cc1` [Compound 5, 1-(2,4-Dihydroxyphenyl)-3-(4-hydroxyphenyl)propane] came in with a melting point of 92 to 93 °C. On aromatase, the “aromatase inhibition, result in words” value was “inactive”.

Regarding `O=C1C[C@@H](c2ccc(O)cc2O)Oc2cc(O)cc(O)c21` [Compound 14, (2S)-5,7,2′,4′-Tetrahydroxyflavanone], on aromatase, the half-inhibitory concentration (IC50) was determined as 2.2 µM.

As to `COc1c(-c2ccc(O)c(O)c2)oc2cc(O)c(C/C=C(\C)CCC=C(C)C)c(O)c2c1=O` [Compound 3, 5,7,3′,4′-Tetrahydroxy-3-methoxy-6-geranylflavone], the melting point is 98 to 99 °C. Also, the “aromatase inhibition, result in words” value at aromatase is “not active; also recorded: inactive”.
